Patent publication US6037354A, “Alpha 1a adrenergic receptor antagonists” (Merck & Co., Inc., priority 1998, dated 2000)
pKi: −log10 of the molar value. Structures can show the parent of a compound that is named as a salt.

Legend:
[1] = biological target: T1, human alpha 1a adrenergic receptor (Homo sapiens, UniProt P35348); test: Alpha 1a Adrenergic Receptor Binding screening assay ([125I]-HEAT competition, membranes of stably transfected human alpha 1a cell line); conditions: human alpha 1a receptor, 100 pM [125I]-HEAT, room temperature, one hour
T1 sequence (P35348 1-466): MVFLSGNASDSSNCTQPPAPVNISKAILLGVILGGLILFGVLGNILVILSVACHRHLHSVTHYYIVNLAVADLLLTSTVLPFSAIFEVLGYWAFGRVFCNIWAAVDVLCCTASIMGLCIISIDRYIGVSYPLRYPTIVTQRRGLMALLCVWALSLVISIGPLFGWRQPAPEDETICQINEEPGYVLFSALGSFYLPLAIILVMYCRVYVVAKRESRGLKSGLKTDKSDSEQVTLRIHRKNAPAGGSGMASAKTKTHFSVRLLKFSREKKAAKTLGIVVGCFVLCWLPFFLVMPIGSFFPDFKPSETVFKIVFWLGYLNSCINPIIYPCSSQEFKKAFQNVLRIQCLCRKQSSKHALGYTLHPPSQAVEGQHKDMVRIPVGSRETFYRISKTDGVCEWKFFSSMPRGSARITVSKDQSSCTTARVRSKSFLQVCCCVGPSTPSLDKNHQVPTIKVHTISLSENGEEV
Description: Screening assay: Alpha 1a Adrenergic Receptor Binding
Membranes prepared from the stably transfected human alpha 1a cell line (ATCC CRL 11140) were used to identify compounds that bind to the human alpha 1a adrenergic receptor. These competition binding reactions (total volume=200 μl) contained 50 mM Tris-HCl pH. 7.4, 5 mM EDTA, 150 mM NaCl, 100 pM [^125 I]-HEAT, membranes prepared from the alpha 1a cell line and increasing amounts of unlabeled ligand. Reactions were incubated at room temperature for one hour with shaking. Reactions were filtered onto Whatman GF/C glass fiber filters with a Inotec 96 well cell harvester. Filters were washed three times with ice cold buffer and bound radioactivity was determined (Ki).

[2] = system: human alpha 1b and alpha 1d adrenergic receptors; test: Selective Binding assays ([125I]-HEAT competition, membranes of stably transfected human alpha 1d and alpha 1b cell lines), compared with alpha 1a; conditions: alpha 1a versus alpha 1b and alpha 1d
Description: Selective Binding assays Membranes prepared from stably transfected human alpha 1d and alpha 1b cell lines (ATCC CRL 11138 and CRL 11139, respectively) were used to identify compounds that selectively bind to the human alpha 1a adrenergic receptor. These competition binding reactions (total volume=200 μl) contained 50 mM Tris-HCl pH. 7.4, 5 mM EDTA, 150 mM NaCl, 100 pM [^125 I]-HEAT, membranes prepared from cell lines transfected with the respective alpha 1 subtype expression plasmid and increasing amounts of unlabeled ligand. Reactions were incubated at room temperature for one hour with shaking. Reactions were filtered onto Whatman GF/C glass fiber filters with a Inotec 96 well cell harvester. Filters were washed three times with ice cold buffer and bound radioactivity was determined (Ki).

Row | pKi [1] | alpha 1a Ki [1] | Structure (SMILES) | selectivity in binding to alpha 1a receptors versus binding to the alpha 1b and alpha 1d receptors [2]
1 | > 6.70 | – | Cl.O=C(N[C@@H]1CCN([C@H]2CC[C@@H](c3ccccn3)CC2)C1)N1C(=O)OC[C@@H]1c1ccc(F)c(F)c1 [Example 12, (4S)-cis-4-(3,4-Difluorophenyl)-2-oxooxazolidine-3-carboxylic acid-[1-(4-pyridin-2-yl-cyclohexyl)-(3R)-pyrrolidin-3-yl]amide hydrochloride] | at least 3 fold
2 | ~6.10 | – | COc1ccccc1[C@H]1CC[C@@H](N2CC[C@@H](NC(=O)N3C(=O)OC[C@@H]3c3ccc(F)c(F)c3)C2)CC1 [Example 16, (4S)-cis-4-(3,4-Difluorophenyl)-2-oxooxazolidine-3-carboxylic acid-{1-[4-(2-methoxyphenyl)-cyclohexyl]-(3R)-pyrrolidin-3-yl}amide hydrochloride] | –
3 | – | inactive | O=C(N[C@@H]1CCN(C2CCC(O)(c3ccccn3)CC2)C1)N1C(=O)OC[C@@H]1c1ccc(F)c(F)c1 (stereo partly drawn) [Example 20, (4S)-trans-4-(3,4-Difluorophenyl)-2-oxooxazolidine-3-carboxylic acid-[1-(4-hydroxy-4-pyridin-2-yl-cyclohexyl)-(3R)-pyrrolidin-3-yl]amide hydrochloride] | –
4 | – | – | NC(=O)[C@@H]1OC(=O)N(C(=O)N[C@@H]2CCN([C@H]3CC[C@H](c4ccccc4F)CC3)C2)[C@H]1c1ccc(F)c(F)c1 [Example 78, (4S,5R)-trans-4-(3,4-Difluorophenyl)-3-{1-[4-(2-fluorophenyl)cyclohexyl]-(3R)-pyrrolidin-3-ylcarbamoyl}-2-oxo-oxazolidine-5-carboxamide] | about 37 fold
